We go through two compounds from patent publication US9241916B2, “Cognitive performance with sirtuin activators” (President and Fellows of Harvard College, priority 2005, dated 2016).

Data set [1] relates to mice. The data set can be described thus: Ethanol-induced impairment of context-dependent fear conditioning. The class given is in vivo. The text has this:
(§1) The principle of Pavlovian fear conditioning is as follows. During the training procedure mice are exposed to a novel context (context 1), consisting of an observation chamber with defined lightning, odor, background noise and geometry. After exploring this novel environment for 180 s the animals are exposed to a tone for 30 s followed by a mild electric foot shock for 2 s. On the basis of associative learning mice display aversive freezing behavior during a memory test consisting of re-expose to the conditioning context 24 h after the training. […] Tone-dependent fear memories can be analyzed by presenting the tone in context 2. Freezing is an inborn behavior that rodents express in threatening situations. It is defined as the complete absence of movement, except respiration and heartbeat. […] Therefore, freezing behavior is commonly used to quantify the amount of learning.

Data set [2] has as its system C57BL/6J mice. The data set can be described thus: Context- and tone-dependent Pavlovian fear conditioning, icv. injection. The class given is in vivo. The conditions noted are these: vs. vehicle. The text has this:
A fundamental type of learning is associative learning that can be analyzed in rodents using the pavlovian fear conditioning paradigm (Fendt and Fanselow, 1999; Fischer et al., 2003). As fear conditioning is a robust and commonly used method to analyze learning and allows to delineate the involvement of distinct brain structures in the learning process, we choose this paradigm to investigate the effect of reveratrol on learning. The principle of Pavlovian fear conditioning is as follows. During the training procedure mice are exposed to a novel context (context 1), consisting of an observation chamber with defined lightning, odor, background noise and geometry. After exploring this novel environment for 180 s the animals are exposed to a tone for 30 s followed by a mild electric foot shock for 2 s. On the basis of associative learning mice display aversive freezing behavior during a memory test consisting of re-expose to the conditioning context 24 h after the training. […] Tone-dependent fear memories can be analyzed by presenting the tone in context 2. Freezing is an inborn behavior that rodents express in threatening situations. It is defined as the complete absence of movement, except respiration and heartbeat. Whereas mice display no freezing behavior during training, a significant increase of freezing behavior is observed upon re-exposure to the conditioned context only. Therefore, freezing behavior is commonly used to quantify the amount of learning. C57BL/6J mice were anesthetized and microcannula (PlasticOne; AP −0 mm, lateral 1 mm, depth 2 mm) were implanted into the lateral brain ventricles (icv). […] The animals were trained by context- and tone-dependent fear conditioning 24 h after the last icv. injection and memory retention was analyzed the following day (see FIG. 1A). […] The mice were tested for memory retention 24 h later by re-exposure to the conditioning context.

In data set [3] the test system is CK-p25 mice. Kind of data set: p25-mediated cognitive decline, fear conditioning in CK-p25 mice. The class given is in vivo. The conditions noted are these: p25 induced for 5 weeks, icv. 5 μg/mouse 2-3×/week, vs. vehicle.
Source text: as §1

Data set [4] deals with T1, Sirt1 deacetylase (Homo sapiens, UniProt Q96EB6).
T1 sequence (Q96EB6 1-747): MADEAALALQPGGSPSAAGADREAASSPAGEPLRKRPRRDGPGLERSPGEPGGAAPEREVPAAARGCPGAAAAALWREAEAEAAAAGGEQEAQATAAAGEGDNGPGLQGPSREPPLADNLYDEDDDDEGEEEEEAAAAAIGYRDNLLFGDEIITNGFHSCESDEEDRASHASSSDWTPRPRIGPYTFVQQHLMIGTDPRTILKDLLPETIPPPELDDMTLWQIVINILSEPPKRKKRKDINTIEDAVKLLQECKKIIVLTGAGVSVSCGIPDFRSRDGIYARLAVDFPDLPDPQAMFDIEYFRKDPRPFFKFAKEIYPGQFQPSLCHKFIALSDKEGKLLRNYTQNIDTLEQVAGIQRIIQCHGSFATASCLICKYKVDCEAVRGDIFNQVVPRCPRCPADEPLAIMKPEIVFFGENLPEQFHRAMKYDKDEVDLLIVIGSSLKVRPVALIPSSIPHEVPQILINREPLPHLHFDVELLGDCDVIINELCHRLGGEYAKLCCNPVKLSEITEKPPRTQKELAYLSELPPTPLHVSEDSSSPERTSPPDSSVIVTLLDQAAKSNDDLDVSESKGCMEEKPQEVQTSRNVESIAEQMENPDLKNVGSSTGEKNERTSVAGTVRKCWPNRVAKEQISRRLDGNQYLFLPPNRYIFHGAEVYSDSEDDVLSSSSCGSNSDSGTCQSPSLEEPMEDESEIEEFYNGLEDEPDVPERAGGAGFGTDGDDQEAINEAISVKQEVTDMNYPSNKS
The conditions noted are these: Howitz et al., 2003; Wood et al., 2004; cited from earlier work.

Data set [5] relates to mice. Kind of data set: Context- and tone-dependent fear conditioning, intra-hippocampal (i.h.) injection. The class given is in vivo. The conditions noted are these: vs. vehicle. The text has this:
The principle of Pavlovian fear conditioning is as follows. During the training procedure mice are exposed to a novel context (context 1), consisting of an observation chamber with defined lightning, odor, background noise and geometry. After exploring this novel environment for 180 s the animals are exposed to a tone for 30 s followed by a mild electric foot shock for 2 s. On the basis of associative learning mice display aversive freezing behavior during a memory test consisting of re-expose to the conditioning context 24 h after the training. […] Tone-dependent fear memories can be analyzed by presenting the tone in context 2. Freezing is an inborn behavior that rodents express in threatening situations. It is defined as the complete absence of movement, except respiration and heartbeat. Whereas mice display no freezing behavior during training, a significant increase of freezing behavior is observed upon re-exposure to the conditioned context only. Therefore, freezing behavior is commonly used to quantify the amount of learning. Context-dependent fear conditioning requires the hippocampus whereas tone-dependent fear conditioning relies on an intact amygdala (Kim and Fanselow, 1992).

Setting [6] is: icv. 5 μg/mouse for 7 consecutive days, training 24 h after last injection, memory test the following day.
[7] abbreviates: single icv. injection 5 μg/mouse immediately after training, test 24 h later.

The structures appear in SMILES notation. Entries after “also recorded” stand apart in the source; their conditions may differ.

Regarding `CCO` [ethanol], the “freezing behavior during the context-dependent memory test (impairment by ethanol)” value in data set [1] (ip. 33% ethanol/PBS immediately after training) is recorded as “impaired freezing behavior; also recorded: severe impaired freezing”.

Consider `Oc1ccc(C=Cc2cc(O)cc(O)c2)cc1` [resveratrol, 3,5,4′-tri-hydroxystilbene], for which the “freezing behavior during the context-dependent memory test” value in data set [2] (setting [6]) was “significantly increased freezing behavior”; in data set [2] (setting [7]), “significantly increased freezing behavior; also recorded: significantly enhanced freezing”; in data set [5] (i.h. 5 μg/mouse 4 h after the training) it was “significantly enhanced freezing behavior”. The “freezing behavior during the tone-dependent memory test” value in data set [2] (setting [6]) and in data set [2] (setting [7]) was “significantly increased freezing behavior” throughout. Also, the “freezing behavior, memory retention 24 h after fear conditioning” value in data set [3] is “significantly enhanced”. Besides, the “agonism of the Sirt1 deacetylase” value in data set [4] was “potent agonist”. For the same compound, the “freezing behavior during the context-dependent memory test (prevention of ethanol-induced impairment)” value in data set [1] (ip. 30 mg/kg resveratrol in 33% ethanol/PBS immediately after training, compared with PBS and ethanol groups, 30 mg/kg) was “performed indistinguishable to mice injected only with PBS; also recorded: attenuated this effect”. Moreover, the “freezing during the tone-dependent memory test” value in data set [5] (i.h. 5 μg/mouse immediately or 4 h after the training) is given as “not different among groups”.
